In patent publication US11154587B2, “Use of peptides to stimulate the immune system” (DIACCURATE, priority 2015, dated 2021):
Entries after “also recorded” stand apart in the source; their conditions may differ. Where a SMILES comes first, the peptide text is derived from it. [ ]: non-standard residue; d: D form. 2Nal = N[C@@H](Cc1ccc2ccccc2c1)C(=O)O

Key:
[1] = molecular target: T1, PLA2 GIB contained in the plasma of viremic patients (Homo sapiens, UniProt P04054); assay: Bioassay: inhibition of IL-7-induced NTpSTAT5 in healthy donor CD4 T cells by plasma/sera of viremic HIV-infected patients; type: cell-based
T1 construct: CD4 lymphocytes purified from healthy donors were exposed to sera from viremic HIV-infected patients at 1% or 3% dilution; from tissue; host or cells: plasma/sera of viremic HIV-infected patients
T1 sequence (P04054 23-148): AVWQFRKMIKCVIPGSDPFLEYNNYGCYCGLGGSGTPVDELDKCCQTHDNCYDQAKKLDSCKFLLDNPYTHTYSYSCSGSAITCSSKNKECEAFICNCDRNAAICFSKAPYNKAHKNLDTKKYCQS
Protocol: FIG. 3: Peptide I restores the activity of CD4 lymphocytes: CD4 lymphocytes purified from healthy donors were exposed to sera from viremic HIV-infected patients at 1% or 3% dilution. […] Five sera were tested and the results are given as the median+/−SD.
Viremic patients (VP) included in the study had been HIV-positive for more than one year. […] All blood samples from VP were drawn at Hôpital Bicêtre or Centre Hospitalier de Gonesse.
(§1) Inhibition of IL-7-induced phosphorylated STAT5 nuclear translocation (NTpSTAT) was measured as follows: VP plasma (5 or 10%) was first incubated with purified HD CD4 T cells (20 min) before stimulation by IL-7 (2 nM, 15 min.). Cells were then plated on polylysine coated glass slides before fixation by PFA (1.5%) and permeabilization by methanol (90% at −20° C.). pSTAT5 was then stained by rabbit anti-STAT5 and labeled with goat anti-rabbit-Atto642. The cells were analyzed by pulsed STED microscopy and the number of nuclei expressing pSTAT5 were counted.
We have shown that PLA2 GIB contained in the plasma of viremic patients induces a blockade of IL-7-induced nuclear translocation of phospho STAT5 (NT pSTAT5). […] Here we tested the effects of Peptide I on the capacity of the sera from VP to block IL-7-induced NTpSTAT5.
The effect of plasma from various HIV viremic patients (at least 5) were titrated on the inhibition of IL-7-induced NTpSTAT5. […]

[2] = molecular target: T2, Recombinant PLA2G1B (Homo sapiens, UniProt P04054); assay: Bioassay: recombinant PLA2GIB-mediated inhibition of IL-7-induced nuclear translocation of phospho STAT5 in CD4 T cells (STED microscopy); type: cell-based
T2 construct: sPLA2GIB was produced in E. Coli; Inclusion bodies were solubilized in urea and afterwards renatured; made in house; host or cells: E. coli
T2 sequence (P04054 23-148): as above
Protocol: FIG. 1: Peptide I inhibits sPLA2G1B: Recombinant PLA2G1B (75 nanoM) was first exposed 30 mn to indicated concentrations of Peptide I. The mixture was then applied in the bioassay described in Materials and Methods. % inhibition of IL-7-induced nuclear translocation of phospho STAT5 was measured by STED microscopy. The results of two experiments are shown.
FIG. 2: Calculation of IC50 of Peptide I: Experimental data were analyzed by Prism software in order to precisely calculate the IC50.
sPLA2GIB was produced in E. Coli. Inclusion bodies were solubilized in urea and afterwards renatured. sPLA2GIB was further purified by HPLC. Homogeneity of the preparations was verified by MassSpectrometry (Malditoff). The specific activity of the enzyme was always measured and compared to standard preparations.
as §1
We first investigated the effects of different doses of Peptide I on the biological activity of recombinant PLA2GIB as tested in the bioassay described in Materials and Methods. […] The experiment was repeated twice. From the experimental data we derived the corresponding theoretical curve that gives the IC50. For Peptide I, IC 50 is about 4.9 microM (FIG. 2).

inhibition achieved when the plasma is used ([1]; plasma of viremic patients): around 100%
inhibitory effect on recombinant PLA2GIB activity ([2]; 5 microM Peptide I): effective
inhibitory effect on recombinant PLA2GIB activity ([2]; 10 microM Peptide I): very strong
IC50 ([2]; recombinant PLA2G1B 75 nanoM exposed 30 mn to Peptide I, calculated with Prism from two experiments, read-out: IC50 (inhibition of recombinant PLA2GIB biological activity)): ~4.9 µM
maximum inhibition (plateau) with the recombinant enzyme ([2]; recombinant pure enzyme in serum free buffer): around 80%
Structure (SMILES): CC(C)C[C@@H]1NC(=O)[C@H](Cc2ccc3ccccc3c2)NC(=O)[C@H](CCCNC(=N)N)NC(=O)[C@H](Cc2ccc3ccccc3c2)NC(=O)[C@H](CO)NC1=O [Peptide I, cyclic(2-NaphthylAla-Leu-Ser-2-NaphthylAla-Arg)] (cyclo([2Nal]LS[2Nal]R); ring closure inferred)
reversal of sera-induced inhibition of IL-7-induced nuclear translocation of pSTAT5 ([1]; 15 microM Peptide I, sera from viremic HIV-infected patients at 1% or 3% dilution, five sera): totally reversed this inhibition; also recorded: completely reverted the activity of the sera
